Laboratory results from patent US7135615B2, “Chromosome doubling method” (The Curators of the University of Missouri, priority 2001, dated 2006).
Marks after values point to notes of the source that are not given here.

Experiments:
[1] = tested on: maize haploid seedlings of origin B73; test: doubled haploid production trial, B73 haploids (Example 4); settings: for Ear: Plants with kernels after selfing % / Tassel: No. of fertile anthers extruded/tassel / Tassel: No. of fertile sectors/tassel / Tassel: Plants with fertile sectors % / Ear: Plants with kernels after selfing No. / Tassel: Plants with fertile sectors No. / No. of plants Survived / Ear: No. of kernels produced/ear: B73 haploids, 600 kPa, 2 days; for Ear: Plants with kernels after selfing No. / Tassel: Plants with fertile sectors No.: 11 survived; for No. of plants Survived: 11 treated; for Ear: No. of kernels produced/ear: selfed
Method: Ten to nineteen plants were treated for each plot. Self pollinations were conducted on these treated haploids if there were fertile sectors on the tassel. Pollen grains were collected carefully on a sheet of paper and transferred to the silks repeatedly. Silks and husks were cut back prior to pollination in order to permit maximum seed set. The numbers of fertile tassel and ear sectors, as well as the numbers of anthers and selfed kernels were recorded. Statistical analyses were as described above.

[2] = tested on: maize Oh43 haploid seedlings; test: nitrous oxide gas treatment at 3–8 leaf stages, Oh43 haploids (Example 3); settings: for Ear (open pollinated): No. of fertile sectors /ear / Ear (open pollinated): No. of kernels produced /ear / Ear (open pollinated): Plants with fertile sectors % / No. of tassel branch Average / Plant height (cm) Average / Tassel: No. of fertile anthers extruded/tassel / Tassel: No. of fertile sectors/tassel / Tassel: Plants with fertile sectors % / Ear (open pollinated): Plants with fertile sectors No. / Tassel: Plants with fertile sectors No. / No. of plants Survived: 600 kPa, 2 days
Excerpt: Leaf stages were defined as follows, At the 3 leaf stage, there are three elongated leaves and the tip of the fourth leaf appears at the center of the leaf whorl. This stage is defined as V2 according to Ritchie et al. (1997). At the 8 leaf stage, there are 8 elongated leaves and the tip of the 9th and 10th leaves appear at the center of the leaf whorl (late V5 stage). At the 6 leaf stage, six elongated leaves are observable, and the tip of seventh leaf appears at the leaf whorl (late V4 or early V5 stage). Nine to sixteen haploid plants were treated at each stage using a large air tight iron chamber (FIG. 3). […] Moistened calcium hydroxide (50 g) wrapped in a paper towel was included to absorb carbon dioxide that is produced by the seedlings, as carbon dioxide at high concentration will injure the seedlings during the treatment. The soil of the pots was dried prior to treatment to prevent root injuries. […] The gas was introduced slowly into the chamber over a 10 minutes time frame.
After the treatment, seedlings were transplanted into larger pots, and grown in a greenhouse. A relatively cool temperature (below 25° C.) was maintained to permit the appropriate development of doubled sectors. At flowering, the ears were cross pollinated by an appropriate pollen source to reveal all the fertile sectors on the ears. On the treated plants, plant height (cm), tassel size (cm), number of tassel branches, ear length (cm), the number of fertile sectors on a tassel and an ear, the number of anthers on a tassel, and the number of kernels on an ear were recorded.
Analyses of variance and Duncan's Multiple Range Tests were performed to determine the effects of treatments on the plant height (cm), tassel size (cm), and ear length (cm). Chi square tests were used to determine the effects of treatments upon the proportion of plants that developed fertile tassel and ear sectors. The ratios of untreated plants with fertile sectors were used to estimate the significance of the ratio of treated plants with fertile sectors.
Nonparametric tests were performed to compare the distributions. The primary test was the Kruskal-Wallis test. In the initial tests, the null hypothesis considered was that the distributions would be the same for each treatment and control. If the null hypothesis was rejected (P<0.05), then pair wise comparisons of each treatment to the control using Dunn's method were conducted. The tassel branch number was low incidence count data and was analyzed using the same nonparametric tests mentioned above.

[N-]=[N+]=O [nitrous oxide gas, nitrous oxide]
ear and silk abnormalities ([1]; B73 haploids treated at the 7 leaf stage): deformed ears and delayed silk emergence
Ear: Plants with kernels after selfing % ([1]; 5 leaf stage): 36 n.s. %
Tassel: No. of fertile anthers extruded/tassel ([1]; 5 leaf stage): 3.5 n.s /tassel
Tassel: No. of fertile sectors/tassel ([1]; 5 leaf stage): 0.5 n.s. /tassel
Tassel: Plants with fertile sectors % ([1]; 5 leaf stage): 45 n.s. %
Ear: Plants with kernels after selfing No. ([1]; 5 leaf stage): 4
Tassel: Plants with fertile sectors No. ([1]; 5 leaf stage): 5
No. of plants Survived ([1]; 5 leaf stage): 11
Ear: No. of kernels produced/ear ([1]; 5 leaf stage): 2.4 n.s. /ear
Ear: Plants with kernels after selfing % ([1]; 6 leaf stage): 45%
Tassel: No. of fertile anthers extruded/tassel ([1]; 6 leaf stage): 13.2 /tassel
Tassel: Plants with fertile sectors % ([1]; 6 leaf stage): 64%
Ear: Plants with kernels after selfing No. ([1]; 6 leaf stage): 5
Tassel: Plants with fertile sectors No. ([1]; 6 leaf stage): 7
No. of plants Survived ([1]; 6 leaf stage): 11
Ear: No. of kernels produced/ear ([1]; 6 leaf stage): 10.7 /ear
Ear: Plants with kernels after selfing % ([1]; 7 leaf stage): 18%
Tassel: No. of fertile anthers extruded/tassel ([1]; 7 leaf stage): 14.9 /tassel
Tassel: No. of fertile sectors/tassel ([1]; 7 leaf stage): 1.4 /tassel
Tassel: Plants with fertile sectors % ([1]; 7 leaf stage): 64%
Ear: Plants with kernels after selfing No. ([1]; 7 leaf stage): 2
Tassel: Plants with fertile sectors No. ([1]; 7 leaf stage): 7
No. of plants Survived ([1]; 7 leaf stage): 11
Ear: No. of kernels produced/ear ([1]; 7 leaf stage): 0.9 /ear
Ear (open pollinated): No. of fertile sectors /ear ([2]; 3 leaf stage): 0.7 /ear
Ear (open pollinated): No. of kernels produced /ear ([2]; 3 leaf stage): 0.5 /ear
Ear (open pollinated): Plants with fertile sectors % ([2]; 3 leaf stage): 33%
No. of tassel branch Average ([2]; 3 leaf stage): 3.8**
Plant height (cm) Average ([2]; 3 leaf stage): 106 a cm
Tassel: No. of fertile anthers extruded/tassel ([2]; 3 leaf stage): 0.0 /tassel
Tassel: No. of fertile sectors/tassel ([2]; 3 leaf stage): 0.0 /tassel
Tassel: Plants with fertile sectors % ([2]; 3 leaf stage): 0%
Ear (open pollinated): Plants with fertile sectors No. ([2]; 3 leaf stage, 12 examined): 4
Tassel: Plants with fertile sectors No. ([2]; 3 leaf stage, 12 examined): 0
No. of plants Survived ([2]; 3 leaf stage, 12 treated): 12
effect for increasing the fertile sectors on either tassels and ears ([2]; 3–4 leaf stage): no effect
number of anthers /tassel, span over treatments ([2]; 3–8 leaf stage treatments): 0–19.7 /tassel
number of kernels on the ears, span over treatments ([2]; 3–8 leaf stage treatments): 0.5–18.6
Ear (open pollinated): No. of fertile sectors /ear ([2]; 4 leaf stage): 0.8 /ear
Ear (open pollinated): No. of kernels produced /ear ([2]; 4 leaf stage): 0.8 /ear
Ear (open pollinated): Plants with fertile sectors % ([2]; 4 leaf stage): 46%
No. of tassel branch Average ([2]; 4 leaf stage): 4.4**
Plant height (cm) Average ([2]; 4 leaf stage): 121 b cm
Tassel: No. of fertile anthers extruded/tassel ([2]; 4 leaf stage): 1.5 /tassel
Tassel: No. of fertile sectors/tassel ([2]; 4 leaf stage): 0.3 /tassel
Tassel: Plants with fertile sectors % ([2]; 4 leaf stage): 23%
Ear (open pollinated): Plants with fertile sectors No. ([2]; 4 leaf stage, 13 examined): 6
Tassel: Plants with fertile sectors No. ([2]; 4 leaf stage, 13 examined): 3
No. of plants Survived ([2]; 4 leaf stage, 13 treated): 13
Ear (open pollinated): No. of fertile sectors /ear ([2]; 5 leaf stage): 1.4 /ear
Ear (open pollinated): No. of kernels produced /ear ([2]; 5 leaf stage): 1.8 /ear
Ear (open pollinated): Plants with fertile sectors % ([2]; 5 leaf stage): 46%
No. of tassel branch Average ([2]; 5 leaf stage): 2.9**
Plant height (cm) Average ([2]; 5 leaf stage): 124 b cm
Tassel: No. of fertile anthers extruded/tassel ([2]; 5 leaf stage): 19.7 /tassel
Tassel: No. of fertile sectors/tassel ([2]; 5 leaf stage): 1.2* /tassel
Tassel: Plants with fertile sectors % ([2]; 5 leaf stage): 54** %
Ear (open pollinated): Plants with fertile sectors No. ([2]; 5 leaf stage, 13 examined): 6
Tassel: Plants with fertile sectors No. ([2]; 5 leaf stage, 13 examined): 7
Ear (open pollinated): No. of fertile sectors /ear ([2]; 6 leaf stage): 1.5 /ear
Ear (open pollinated): No. of kernels produced /ear ([2]; 6 leaf stage): 18.6 /ear
Ear (open pollinated): Plants with fertile sectors % ([2]; 6 leaf stage): 67%
No. of tassel branch Average ([2]; 6 leaf stage): 5.7
Plant height (cm) Average ([2]; 6 leaf stage): 119 b cm
Tassel: No. of fertile anthers extruded/tassel ([2]; 6 leaf stage): 5.3 /tassel
Tassel: No. of fertile sectors/tassel ([2]; 6 leaf stage): 1.8** /tassel
Tassel: Plants with fertile sectors % ([2]; 6 leaf stage): 100%
Ear (open pollinated): Plants with fertile sectors No. ([2]; 6 leaf stage, 12 examined): 8
Tassel: Plants with fertile sectors No. ([2]; 6 leaf stage, 12 examined): 12
No. of plants Survived ([2]; 6 leaf stage, 16 treated): 12
Ear (open pollinated): No. of fertile sectors /ear ([2]; 7 leaf stage): 0.8 /ear
Ear (open pollinated): No. of kernels produced /ear ([2]; 7 leaf stage): 1.1 /ear
Ear (open pollinated): Plants with fertile sectors % ([2]; 7 leaf stage): 46%
No. of tassel branch Average ([2]; 7 leaf stage): 5.0*
Plant height (cm) Average ([2]; 7 leaf stage): 122 b cm
Tassel: No. of fertile anthers extruded/tassel ([2]; 7 leaf stage): 5.8** /tassel
Tassel: No. of fertile sectors/tassel ([2]; 7 leaf stage): 2.1** /tassel
Tassel: Plants with fertile sectors % ([2]; 7 leaf stage): 69** %
Ear (open pollinated): Plants with fertile sectors No. ([2]; 7 leaf stage, 13 examined): 6
Tassel: Plants with fertile sectors No. ([2]; 7 leaf stage, 13 examined): 9
No. of plants Survived ([2]; 7 leaf stage, 16 treated): 13
Ear (open pollinated): No. of fertile sectors /ear ([2]; 8 leaf stage): 1.0 /ear
Ear (open pollinated): No. of kernels produced /ear ([2]; 8 leaf stage): 4.1 /ear
Ear (open pollinated): Plants with fertile sectors % ([2]; 8 leaf stage): 46%
No. of tassel branch Average ([2]; 8 leaf stage): 5.3*
Plant height (cm) Average ([2]; 8 leaf stage): 122 b cm
Tassel: No. of fertile anthers extruded/tassel ([2]; 8 leaf stage): 3.1** /tassel
Tassel: No. of fertile sectors/tassel ([2]; 8 leaf stage): 1.4** /tassel
Tassel: Plants with fertile sectors % ([2]; 8 leaf stage): 69** %
Ear (open pollinated): Plants with fertile sectors No. ([2]; 8 leaf stage, 13 examined): 6
Tassel: Plants with fertile sectors No. ([2]; 8 leaf stage, 13 examined): 9
No. of plants Survived ([2]; 8 leaf stage, 16 treated): 13
